Assay results: patent US10851073B2, “Protein tyrosine phosphatase inhibitors and methods of use thereof” (Calico Life Sciences LLC, priority 2019, dated 2020)

Key:
[1] = target: T1, His tagged PTPN2 (TC45) protein (Homo sapiens, UniProt P17706); assay: Mobility shift assay used to determine potency of PTPN2 inhibitors; format: biochemical; conditions: enzyme 0.5 nM, substrate 2 μM; read-out: PTPN2 MSA IC50
T1 construct: made in house
T1 sequence (P17706 with tags, fused parts or gaps isoform P17706-2): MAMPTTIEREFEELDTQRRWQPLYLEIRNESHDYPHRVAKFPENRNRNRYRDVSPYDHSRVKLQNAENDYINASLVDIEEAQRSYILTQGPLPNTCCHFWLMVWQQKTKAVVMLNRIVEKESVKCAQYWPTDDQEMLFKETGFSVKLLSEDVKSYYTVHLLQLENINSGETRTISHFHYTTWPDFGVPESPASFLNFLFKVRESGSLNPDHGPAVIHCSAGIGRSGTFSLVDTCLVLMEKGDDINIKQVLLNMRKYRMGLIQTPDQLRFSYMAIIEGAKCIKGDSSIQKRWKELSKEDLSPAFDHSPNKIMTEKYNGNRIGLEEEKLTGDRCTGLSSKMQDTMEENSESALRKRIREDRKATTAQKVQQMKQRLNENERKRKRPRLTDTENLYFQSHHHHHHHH
Outline: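 Microfluidic mobility-shift read-out (488/530 nm) of dephosphorylation of an OG488-tagged phosphotyrosine insulin receptor peptide, 2 μM, over 10 min at room temperature, after 10 min compound preincubation with 0.5 nM enzyme. Buffer: 50 mM HEPES pH 7.5, EGTA, EDTA, Tween 20, DTT. IC50 derived from % inhibition over 12-point 1:3 series.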

[2] = target: T2, His tagged full-length PTPN1 protein (Homo sapiens, UniProt P18031); assay: Mobility shift assay (MSA) used to determine potency of PTPN1 inhibitors; format: biochemical; conditions: enzyme 0.5 nM, substrate 2 μM
T2 construct: made in house
T2 sequence (P18031 with tags, fused parts or gaps): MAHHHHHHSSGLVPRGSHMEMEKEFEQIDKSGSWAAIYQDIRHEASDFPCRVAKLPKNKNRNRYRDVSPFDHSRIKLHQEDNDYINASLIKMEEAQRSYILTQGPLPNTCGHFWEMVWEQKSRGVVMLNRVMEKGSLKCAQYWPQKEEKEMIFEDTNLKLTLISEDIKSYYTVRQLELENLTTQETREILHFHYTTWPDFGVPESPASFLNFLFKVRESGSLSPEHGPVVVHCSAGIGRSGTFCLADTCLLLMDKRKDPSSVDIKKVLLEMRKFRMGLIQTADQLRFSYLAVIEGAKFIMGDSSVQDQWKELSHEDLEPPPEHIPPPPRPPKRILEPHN
Method: Example 228: Mobility Shift Assay (MSA) Used to Determine Potency of PTPN1 Inhibitors
Compound activity was determined using in house His tagged full-length PTPN1 protein (SEQ ID NO: 3) in an in vitro enzymatic reaction. The enzymatic assay used to determine activity is a mobility shift assay using a LabChip EZ Reader by Caliper Life Sciences. The enzymatic reaction was carried out in assay buffer (50 mM HEPES pH 7.5, 1 mM EGTA, 10 mM EDTA, 0.01% Tween® 20, and 2 mM DTT). The compounds were dispensed on a white 384 well ProxiPlate™ (PerkinElmer Cat^# 6008289) plate using a Labcyte Echo® liquid handler at varying concentrations (12 point, 1:3 dilution). The enzyme (at 0.5 nM) was incubated with compound for 10 minutes at room temperature. Then the substrate (phosphorylated insulin receptor probe sequence: ((OG488)-(NH—CH2—CH2—O—CH2—CH2—O—CH2—CO)-T-R-D-I-(PY)-E-T-D-Y-Y-R-K-K-NH2) (SEQ ID NO: 2) was added at 2 μM to the plates and incubated for another 10 minutes at room temperature. Finally, a quench solution (water and 4-bromo-3-(2-oxo-2-propoxyethoxy)-5-(3-{[1-(phenylmethanesulfonyl)piperidin-4-yl]amino}phenyl)thiophene-2-carboxylic acid) was added to the plates, which were then run on the EZ Reader (excitation 488 nm, emission 530 nm) to measure % conversion (the amount of phosphorylated substrate which was de-phosphorylated by PTPN1). […] The % inhibition was then used to calculate the IC50 values.

[3] = test system: B16F10 mouse melanoma cells; assay: B16F10 IFNγ-induced cellular growth inhibition assay; format: cell-based; conditions: B16-F10, with 0.5 ng/mL IFNγ, read-out: B16F10 GI IC50
Method: Example 229: B16F10 IFNγ-Induced Cellular Growth Inhibition Assay B16F10 mouse melanoma cells (ATCC Cat^# CRL-6475, Manassas, Va.) were seeded at a density of 500 cells per well in a 384-well clear bottom plate (Corning Cat^#3765, Corning, N.Y.) in 25 μL total volume of DMEM+10% FBS (Sigma Cat^# D6429 and Sigma Cat^# F4135, St. Louis, Mo.). Cells were allowed to adhere overnight at 37° C.+5% CO2. On the following day, 12.5 μL of mouse IFNγ (RD systems Cat^#485-MI/CF, Minneapolis, Minn.) was added to half of the plate (columns 13-24) at a concentration of 2 ng/mL for a final assay concentration of 0.5 ng/mL of IFNγ. Media only (12.5 μL of DMEM+10% FBS) was added to the remainder of the plate (columns 1-12). Next, compounds resuspended in DMSO (Sigma Cat^# D2650) at 100 mM were diluted in semi-log dilutions in DMSO ranging from 100 mM to 0.001 mM and DMSO only controls were included. The compound/DMSO dilutions were further diluted 1:250 in DMEM+10% FBS, and 12.5 μL of these dilutions were added in triplicates to cells of both treatment arms (with and without IFNγ). Final compound concentrations ranged from 100 μM to 0.001 μM with a final DMSO concentration of 0.1%. Compounds were only dosed in the inner 240 wells, avoiding the outer 2-well perimeter of the plate to minim/ze edge effects. Finally, the plate was loaded into an IncuCyte® S3 Live Cell Analysis System (Essen Bioscience-Sartorius, Ann Arbor, Mich.) maintained in a 37° C.+5% CO2 incubator, allowed to equilibrate for 2 hours, and imaged every 6 hours for 5 days. Confluence over time for compound dilutions in the presence and absence of IFNγ was measured. Growth inhibition values were obtained when the “DMSO/no IFNγ” control reached confluence >95%. At these time points, for each compound the percent growth inhibition at every compound dose level was calculated relative to the “DMSO/with IFNγ” control and used to determine the IC50.

| Compound | IC50 [1] [nM] | IC50 [2] [nM] | IC50 [3] [nM] |
| --- | --- | --- | --- |
| CO[C@@H]1CCc2cc(O)c(N3CC(=O)NS3(=O)=O)c(F)c2C1 (single isomer, unassigned) [Compound 104] | 10 to 100 | 10 to 100 | 10000 to 100000 |
| CO[C@H]1CCc2cc(O)c(N3CC(=O)NS3(=O)=O)c(F)c2C1 (single isomer, unassigned) [Compound 109] | 10 to 100 | 10 to 100 | 10000 to 100000 |
| CC(C)CCN[C@H]1CCc2cc(O)c(N3CC(=O)NS3(=O)=O)c(F)c2C1 (single isomer, unassigned) [Compound 117] | 10 to 100 | 10 to 100 | 1000 to 10000 |
| Cc1noc(C)c1CCNC1CCc2cc(O)c(N3CC(=O)NS3(=O)=O)c(F)c2C1 (centres unmarked) [Compound 290, 5-(7-{[2-(3,5-dimethyl-1,2-oxazol-4-yl)ethyl]amino}-1-fluoro-3-hydroxy-5,6,7,8-tetrahydronaphthalen-2-yl)-1λ^6,2,5-thiadiazolidine-1,1,3-trione] | 1 to 10 | 1 to 10 | – |
| CC(Cc1ccc(C(C)C)cc1)CN1CCc2cc(O)c(N3CC(=O)NS3(=O)=O)c(F)c2C1 (centres unmarked) [Compound 295, 5-(8-fluoro-6-hydroxy-2-{2-methyl-3-[4-(propan-2-yl)phenyl]propyl}-1,2,3,4-tetrahydroisoquinolin-7-yl)-1λ^6,2,5-thiadiazolidine-1,1,3-trione] | 10 to 100 | > 100 | – |
| CC(CCN1CCc2cc(O)c(N3CC(=O)NS3(=O)=O)c(F)c2C1)CC(C)(C)C (centres unmarked) [Compound 302, 5-[8-fluoro-6-hydroxy-2-(3,5,5-trimethylhexyl)-1,2,3,4-tetrahydroisoquinolin-7-yl]-1λ^6,2,5-thiadiazolidine-1,1,3-trione] | 1 to 10 | 10 to 100 | – |
| CC(O)CCOC(=O)N1Cc2c(cc(O)c(N3CC(=O)NS3(=O)=O)c2F)C(F)(F)C1 (centres unmarked) [Compound 304, 3-hydroxybutyl 4,4,8-trifluoro-6-hydroxy-7-(1,1,4-trioxo-1λ^6,2,5-thiadiazolidin-2-yl)-3,4-dihydroisoquinoline-2(1H)-carboxylate] | > 100 | > 100 | – |
| O=C1CN(c2c(O)cc3c(c2F)CC(CNCCC2CCC2)C3)S(=O)(=O)N1 (centres unmarked) [Compound 305, 5-(2-{[(2-cyclobutylethyl)amino]methyl}-4-fluoro-6-hydroxy-2,3-dihydro-1H-inden-5-yl)-1λ^6,2,5-thiadiazolidine-1,1,3-trione] | 10 to 100 | 10 to 100 | – |
| CC(C)(O)CCOC1CCc2c(cc(O)c(N3CC(=O)NS3(=O)=O)c2F)C1 (centres unmarked) [Compound 309, 5-[1-fluoro-3-hydroxy-6-(3-hydroxy-3-methylbutoxy)-5,6,7,8-tetrahydronaphthalen-2-yl]-1λ^6,2,5-thiadiazolidine-1,1,3-trione] | 10 to 100 | 10 to 100 | – |
| O=C1CN(c2c(O)cc3c(c2F)CCC(OCC2CC2)C3)S(=O)(=O)N1 (centres unmarked) [Compound 310, 5-[6-(cyclopropylmethoxy)-1-fluoro-3-hydroxy-5,6,7,8-tetrahydronaphthalen-2-yl]-1λ^6,2,5-thiadiazolidine-1,1,3-trione] | 10 to 100 | 10 to 100 | – |
| O=C1CN(c2c(O)cc3c(c2F)CCC(NCCCC(F)F)C3)S(=O)(=O)N1 (centres unmarked) [Compound 311, 5-{6-[(4,4-difluorobutyl)amino]-1-fluoro-3-hydroxy-5,6,7,8-tetrahydronaphthalen-2-yl}-1λ^6,2,5-thiadiazolidine-1,1,3-trione] | 1 to 10 | 1 to 10 | – |
| O=C1CN(c2c(O)cc3c(c2F)CCC(OCCCC(F)F)C3)S(=O)(=O)N1 (centres unmarked) [Compound 312, 5-[6-(4,4-difluorobutoxy)-1-fluoro-3-hydroxy-5,6,7,8-tetrahydronaphthalen-2-yl]-1λ^6,2,5-thiadiazolidine-1,1,3-trione] | 10 to 100 | 10 to 100 | – |
| CC(C)CCNC1CCc2c(cc(O)c(N3CC(=O)NS3(=O)=O)c2F)C1 (centres unmarked) [Compound 313, 5-{1-fluoro-3-hydroxy-6-[(3-methylbutyl)amino]-5,6,7,8-tetrahydronaphthalen-2-yl}-1λ^6,2,5-thiadiazolidine-1,1,3-trione] | 1 to 10 | 10 to 100 | – |
| CC(C)CCOC1CCc2c(cc(O)c(N3CC(=O)NS3(=O)=O)c2F)C1 (centres unmarked) [Compound 314, 5-[1-fluoro-3-hydroxy-6-(3-methylbutoxy)-5,6,7,8-tetrahydronaphthalen-2-yl]-1λ^6,2,5-thiadiazolidine-1,1,3-trione] | 10 to 100 | > 100 | – |
| CC(C)(O)CCNC1CCc2c(cc(O)c(N3CC(=O)NS3(=O)=O)c2F)C1 (centres unmarked) [Compound 315, 5-{1-fluoro-3-hydroxy-6-[(3-hydroxy-3-methylbutyl)amino]-5,6,7,8-tetrahydronaphthalen-2-yl}-1λ^6,2,5-thiadiazolidine-1,1,3-trione] | 1 to 10 | 10 to 100 | – |
| CC(C)(C)OC(=O)NCCOC1CCc2c(cc(O)c(N3CC(=O)NS3(=O)=O)c2F)C1 (centres unmarked) [Compound 316, tert-butyl (2-{[5-fluoro-7-hydroxy-6-(1,1,4-trioxo-1λ^6,2,5-thiadiazolidin-2-yl)-1,2,3,4-tetrahydronaphthalen-2-yl]oxy}ethyl)carbamate] | 10 to 100 | > 100 | – |
| COC1CCc2c(cc(O)c(N3CC(=O)NS3(=O)=O)c2F)C1 (centres unmarked) [Compound 317, 5-(1-fluoro-3-hydroxy-6-methoxy-5,6,7,8-tetrahydronaphthalen-2-yl)-1λ^6,2,5-thiadiazolidine-1,1,3-trione] | 10 to 100 | > 100 | – |
| O=C1CN(c2c(O)cc3c(c2F)CCC(NCC2CC2)C3)S(=O)(=O)N1 (centres unmarked) [Compound 318, 5-{6-[(cyclopropylmethyl)amino]-1-fluoro-3-hydroxy-5,6,7,8-tetrahydronaphthalen-2-yl}-1λ^6,2,5-thiadiazolidine-1,1,3-trione] | 1 to 10 | 10 to 100 | – |
| NCCOC1CCc2c(cc(O)c(N3CC(=O)NS3(=O)=O)c2F)C1 (centres unmarked) [Compound 319, 5-[6-(2-aminoethoxy)-1-fluoro-3-hydroxy-5,6,7,8-tetrahydronaphthalen-2-yl]-1λ^6,2,5-thiadiazolidine-1,1,3-trione] | 10 to 100 | > 100 | – |
